Reference: patent EP0260057A2, “2-Oxo-4-carboxy-pyrimidines” (THE UNIVERSITY OF MELBOURNE, priority 1986, dated 1988)

Biological target: T1, dihydroorotase (Mesocricetus auratus, UniProt P08955)
T1 construct: purified by an established procedure from a mutant hamster cell line which overproduces the target enzyme; endogenous in cells; host or cells: mutant hamster cell line overproducing the enzyme more than 100-fold; enzyme purified from these cells
Assay: Dihydroorotase inhibition assay (conversion of L-[14C]dihydroorotate to N-[14C]carbamyl-L-aspartate)
Format: biochemical, hamster
Description: Dihydroorotase has been purified by an established procedure from a mutant hamster cell line which overproduces the target enzyme by more than 100-fold (P.F. Coleman, D.P. Suttle and G.R. Stark (1978) in "Methods in Enzymology" (P.A. Hoffee and M.E. Jones eds.) Vol. 51, pp 121-134, Academic Press, New York; P.F. Coleman D.P. Suttle and G.R. Stark (1977) J. Biol. Chem. 252, 6379-6385). Purified dihydroorotase was stored at -70°C in a solution containing 30% (v/v) dimethyl sulphoxide, 5% (v/v) glycerol, 50 mM KCl, 4 mM L-glutamine, 4 mM L-aspartate, 0.1 mM EDTA and 1 mM dithiothreitol.
Dihydroorotase catalyses the conversion of N-carbamyl-L-aspartate to L-dihydroorotate. To assess the effects of a potential inhibitor of this target enzyme, the rate of conversion of L-dihydroorotate to N-carbamyl-L-aspartate catalysed by dihydroorotase was measured in the presence of a range of concentrations of the inhibitor. For a tight-binding inhibitor like TDHO, extremely low concentrations are sufficient to abolish all dihydroorotase activity. To illustrate the inhibitory potency of TDHO, results of the following experiment are presented. Assay mixtures for dihydroorotase activity contained in a total volume of 25 ul, 50 mM K.Hepes buffer pH 7.4, 5% (v/v) glycerol 12.5 µM L-[¹⁴C]dihydroorotate (specific radioactivity 47.1 Ci/mol), and TDHO concentrations ranging from 0 - 1.50 µM containing a 30-fold molar excess of ZnCl₂. Catalysis was initiated by addition of 39 ng of dihydroorotase. The rate of conversion of L-[¹⁴C]dihydroorotate to N-[¹⁴C]carbamyl-L-aspartate was measured in the presence of different concentrations of TDHO, using established procedures (R.I. Christopherson, T. Matsuura and M.E. Jones (1978) Analytical Biochemistry 100, 184-187). The assay mixture lacking TDHO had the fastest reaction velocity while the lowest velocity measured was in the presence of the highest concentration of TDHO. The results data are plotted as the reciprocal of reaction velocity (l/v) versus the concentration of TDHO from which a value for the dissociation constant (Ki value) for TDHO from the enzyme-TDHO complex can be obtained.
Assay mixtures for dihydroorotase activity contained in a total volume of 25 µl:50 mM K.Hepes buffer pH 7.4, 5% (v/v) glycerol, 12.5 µM L-[¹⁴C]dihydroorotate (specific radioactivity 47.1 Ci/mol), and HDDP concentrations ranging from 0 - 5 µM. Catalysis was initiated by addition of 39 ng of dihydroorotase. The rate of conversion of L-[¹⁴C]dihydroorotate to N-[¹⁴C]carbamyl-L-aspartate was measured in the presence of different concentrations of HDDP, in a similar manner to Test 3.

T1 sequence (P08955 whole entry): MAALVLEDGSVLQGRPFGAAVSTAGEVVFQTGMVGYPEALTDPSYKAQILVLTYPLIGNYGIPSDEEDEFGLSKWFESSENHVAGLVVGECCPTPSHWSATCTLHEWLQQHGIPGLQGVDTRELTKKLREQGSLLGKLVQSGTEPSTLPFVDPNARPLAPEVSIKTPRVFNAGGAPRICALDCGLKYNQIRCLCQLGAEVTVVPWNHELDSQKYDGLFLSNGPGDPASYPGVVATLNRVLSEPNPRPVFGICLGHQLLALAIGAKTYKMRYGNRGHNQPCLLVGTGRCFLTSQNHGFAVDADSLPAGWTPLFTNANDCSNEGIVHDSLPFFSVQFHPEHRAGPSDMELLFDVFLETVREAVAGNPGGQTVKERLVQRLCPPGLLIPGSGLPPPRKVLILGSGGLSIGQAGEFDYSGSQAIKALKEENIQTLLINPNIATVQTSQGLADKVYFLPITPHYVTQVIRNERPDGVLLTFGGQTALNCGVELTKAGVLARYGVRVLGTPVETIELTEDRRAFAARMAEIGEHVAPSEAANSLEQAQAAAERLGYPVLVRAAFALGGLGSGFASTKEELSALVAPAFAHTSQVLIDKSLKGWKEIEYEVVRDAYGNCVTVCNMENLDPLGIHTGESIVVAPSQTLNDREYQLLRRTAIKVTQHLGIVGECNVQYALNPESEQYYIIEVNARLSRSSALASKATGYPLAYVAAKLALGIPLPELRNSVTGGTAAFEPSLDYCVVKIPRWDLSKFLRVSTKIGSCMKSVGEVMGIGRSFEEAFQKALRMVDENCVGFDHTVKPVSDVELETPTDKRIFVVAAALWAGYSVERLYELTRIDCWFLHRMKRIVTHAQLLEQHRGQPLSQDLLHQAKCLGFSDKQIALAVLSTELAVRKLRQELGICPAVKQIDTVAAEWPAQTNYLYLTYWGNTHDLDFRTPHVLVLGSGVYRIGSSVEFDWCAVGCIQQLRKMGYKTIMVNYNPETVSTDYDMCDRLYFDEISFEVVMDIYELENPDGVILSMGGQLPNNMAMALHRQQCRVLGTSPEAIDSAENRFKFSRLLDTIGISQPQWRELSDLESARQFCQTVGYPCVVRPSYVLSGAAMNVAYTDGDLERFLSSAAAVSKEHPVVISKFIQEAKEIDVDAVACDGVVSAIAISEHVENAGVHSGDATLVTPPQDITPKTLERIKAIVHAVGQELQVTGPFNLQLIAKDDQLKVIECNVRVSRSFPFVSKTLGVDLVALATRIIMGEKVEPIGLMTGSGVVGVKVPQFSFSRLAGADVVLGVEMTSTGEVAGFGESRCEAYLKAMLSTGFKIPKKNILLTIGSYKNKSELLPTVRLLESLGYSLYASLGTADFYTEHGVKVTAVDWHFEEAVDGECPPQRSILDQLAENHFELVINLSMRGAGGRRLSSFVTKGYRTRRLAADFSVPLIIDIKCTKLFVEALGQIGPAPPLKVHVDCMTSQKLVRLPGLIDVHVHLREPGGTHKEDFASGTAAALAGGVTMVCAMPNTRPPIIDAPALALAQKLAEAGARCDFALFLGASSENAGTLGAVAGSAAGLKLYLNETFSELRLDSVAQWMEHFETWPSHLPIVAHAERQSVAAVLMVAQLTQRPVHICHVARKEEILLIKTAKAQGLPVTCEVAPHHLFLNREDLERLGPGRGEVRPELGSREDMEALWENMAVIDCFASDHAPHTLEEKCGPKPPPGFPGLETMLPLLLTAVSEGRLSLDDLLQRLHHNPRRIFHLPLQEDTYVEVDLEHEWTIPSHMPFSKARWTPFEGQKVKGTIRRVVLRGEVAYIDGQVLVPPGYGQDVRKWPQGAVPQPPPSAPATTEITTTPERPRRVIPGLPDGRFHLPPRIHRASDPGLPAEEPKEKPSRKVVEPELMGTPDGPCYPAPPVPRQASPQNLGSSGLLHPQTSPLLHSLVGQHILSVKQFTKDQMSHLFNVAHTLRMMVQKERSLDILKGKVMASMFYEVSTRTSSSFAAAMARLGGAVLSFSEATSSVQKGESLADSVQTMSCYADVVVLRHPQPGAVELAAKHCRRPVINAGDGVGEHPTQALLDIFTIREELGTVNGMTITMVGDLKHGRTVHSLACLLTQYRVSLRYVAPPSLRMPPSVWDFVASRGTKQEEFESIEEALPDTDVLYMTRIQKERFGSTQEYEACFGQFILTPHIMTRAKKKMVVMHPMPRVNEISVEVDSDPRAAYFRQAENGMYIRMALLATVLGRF

A Ki (HDDP 0 - 5 µM, pH 7.4, 12.5 µM L-[¹⁴C]dihydroorotate, no ZnCl₂ mentioned) of 480 nM was found for `O=C1NC(C(=O)O)=CC(C(=O)O)N1` (stereo not shown) [HDDP, 2-oxo-1,2,3,6-tetrahydropyrimidine-4,6-dicarboxylic acid] in this work.
A Ki (TDHO containing a 30-fold molar excess of ZnCl₂, pH 7.4, 12.5 µM L-[¹⁴C]dihydroorotate) of 53 nM and a Ki (free acid of TDHO, in the absence of Zn²⁺) of 4500 nM were found for `O=C1NC(=S)CC(C(=O)O)N1` (stereo not shown) [TDHO, Hexahydro-2-oxo-6-thioxo-4-pyrimidinecarboxylic acid] in this work.
With ZnCl₂ [reference compound] the inhibitory effect (ZnCl₂ alone, at the same concentrations as in the TDHO experiment) was “moderate inhibitory effect”.
